Data on 13 compounds can be found in ChEMBL document CHEMBL1201862, “PubChem BioAssay data set” (2004).

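Following 48 hours of exposure in 96-well plates, responses at five concentrations were used to interpolate endpoints linearly. GI50: concentration for 50% inhibition of growth.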 The source made the active and inactive calls. No stated cut-off is given here; in the data, active = GI50 up to about 1.1 µM and inactive = higher.

Among the test systems are COLO 205; DMS-273; EKVX; HCT-116; HL-60; HOP-62; HOP-92; K562; NCI-H226; NCI-H23; SK-MEL-28; SK-MEL-5; SK-OV-3; SNB-75; UACC-257; HCT-15.
Common to all, as to test: NCI-60 cell line screen, 48 h

With `COC(=O)C1CCC2(CC1)NC(=O)NC2=O` (stereo not drawn), the GI50 in the test on COLO 205, in the test with DMS-273, with EKVX, in the test on HCT-116, with HL-60 and in the test with HOP-62 was > 100 µM (inactive) in each case. For the same compound, the GI50 in the test with HOP-92, in the test with K562, in the test with NCI-H226, in the test on NCI-H23, in the test with SK-MEL-28 and in the test on SK-MEL-5 was > 100 µM (inactive) throughout. Further, the GI50 with SK-OV-3, with SNB-75 and with UACC-257 was > 100 µM (inactive) each time.
Consider `CCC(C)(C)NC1=C(NC(C)=O)C(=O)c2ccccc2C1=O`, for which the GI50 with COLO 205 is 29.4 µM (inactive); in the test with DMS-273, 53.5 µM (inactive); in the test with EKVX, > 75 µM (inactive); with HCT-116, 17.7 µM (inactive); in the test with HCT-15, 32.9 µM; in the test with HL-60, 16.7 µM (inactive). Besides, the GI50 was > 75 µM (inactive) in the test on HOP-62; 20.8 µM (inactive) in the test on K562; > 75 µM (inactive) with NCI-H226; 18.9 µM (inactive) in the test on NCI-H23; 61.5 µM (inactive) in the test with SK-MEL-28; 13.5 µM (inactive) in the test with SK-MEL-5. Also, the figures for the GI50 in the test with SK-OV-3, in the test on SNB-75 and in the test with UACC-257 were > 75 µM (inactive), > 75 µM (inactive) and 20.3 µM (inactive), respectively.
For the compound `CC1(C)OCC(C(O)C2OC(C)(C)OC2/C=N\O)O1` (stereo not drawn), the GI50 in the test with COLO 205, in the test with DMS-273, with EKVX, in the test with HCT-116, in the test with HL-60 and in the test on HOP-62 was > 100 µM (inactive) in each case. In addition, the GI50 in the test on HOP-92, in the test on K562, in the test on NCI-H23, in the test with SK-MEL-28, in the test on SK-MEL-5 and with SK-OV-3 was > 100 µM (inactive) throughout. Further, the GI50 in the test on SNB-75 and with UACC-257 was > 100 µM (inactive) in each case.
On to `CC1(C)C2C=CC1C(=O)CC2` (stereo not drawn), for which the GI50 with DMS-273 was > 100 µM (inactive); with EKVX it was > 100 µM (inactive); in the test with HCT-116, > 100 µM (inactive); with HCT-15, greater than 100 µM; in the test on HL-60, > 100 µM (inactive); with HOP-62 it was > 100 µM (inactive). The GI50 with HOP-92, in the test with K562, in the test with NCI-H226, with NCI-H23, with SK-MEL-28 and in the test with SK-MEL-5 was > 100 µM (inactive) throughout. The results for the GI50 in the test with SNB-75 and in the test with UACC-257 were > 100 µM (inactive) and 49.9 µM (inactive), respectively.
On to `COC(=O)/C(=C1\OC(=O)C(c2ccc(Cl)cc2)=C1O)c1ccc(Cl)cc1`, for which the GI50 is 18.9 µM (inactive) in the test on COLO 205; 13.2 µM (inactive) in the test on DMS-273; 23.7 µM (inactive) in the test with EKVX; 19.8 µM (inactive) in the test with HCT-116; 7.6 µM (inactive) in the test on HL-60; 17.7 µM (inactive) in the test with HOP-62. Further, the GI50 with HOP-92 is 17.8 µM (inactive); in the test on K562, 27 µM (inactive); in the test on NCI-H226 it was 21.8 µM (inactive); in the test on NCI-H23, 16 µM (inactive); in the test with SK-MEL-28, 31 µM (inactive); in the test on SK-OV-3 it was 28.8 µM (inactive). Further, the GI50 with SNB-75 was 22.8 µM (inactive); with UACC-257 it was 16.5 µM (inactive).
`O=C(O/N=C1\CCCC\C1=C/c1ccccc1)c1ccc([N+](=O)[O-])cc1`: the GI50 was > 100 µM (inactive) in the test on COLO 205; > 100 µM (inactive) with DMS-273; > 100 µM (inactive) in the test with EKVX; > 100 µM (inactive) in the test with HCT-116; greater than 100 µM with HCT-15; 76.9 µM (inactive) in the test with HL-60. Besides, the GI50 is > 100 µM (inactive) with HOP-62; > 100 µM (inactive) in the test on HOP-92; 74.1 µM (inactive) in the test on K562; > 100 µM (inactive) with NCI-H226; 87.5 µM (inactive) in the test on NCI-H23; > 100 µM (inactive) in the test with SK-MEL-28. Moreover, the GI50 in the test with SK-OV-3 is > 100 µM (inactive); in the test on SNB-75 it was 41.7 µM (inactive).
On to `N#CNC(=N)NC(=O)/C=C/C=C/c1ccc(Cl)cc1`, for which the GI50 is > 100 µM (inactive) in the test with COLO 205; > 100 µM (inactive) in the test on DMS-273; > 100 µM (inactive) in the test with HCT-116; greater than 100 µM with HCT-15; > 100 µM (inactive) in the test with HL-60; > 100 µM (inactive) in the test with HOP-62. Also, the GI50 is > 100 µM (inactive) in the test with HOP-92; > 100 µM (inactive) in the test with K562; > 100 µM (inactive) in the test on NCI-H226; > 100 µM (inactive) in the test with NCI-H23; > 100 µM (inactive) in the test with SK-MEL-28; 33.3 µM (inactive) in the test with SK-MEL-5. Also, the results for the GI50 in the test with SK-OV-3, in the test on SNB-75 and in the test on UACC-257 were > 100 µM (inactive), 24.2 µM (inactive) and > 100 µM (inactive), respectively.
Consider `COc1ccc(-c2cc(-c3ccco3)c(C#N)c(=O)[nH]2)cc1`, for which the GI50 in the test with COLO 205 was > 100 µM (inactive); in the test on DMS-273, 31 µM (inactive); with EKVX, > 100 µM (inactive); in the test on HCT-116, 40.3 µM (inactive); in the test with HCT-15 it was 57.7 µM; in the test with HL-60 it was > 100 µM (inactive). The GI50 was 15.7 µM (inactive) in the test on HOP-62; > 100 µM (inactive) in the test on HOP-92; > 100 µM (inactive) with K562; > 100 µM (inactive) in the test on NCI-H226; 86.7 µM (inactive) in the test on NCI-H23; > 100 µM (inactive) in the test on SK-MEL-28. Moreover, the GI50 with SK-MEL-5 was > 10 µM (inactive); with SK-OV-3 it was 23.2 µM (inactive); with SNB-75, 18 µM (inactive); with UACC-257 it was 77.4 µM (inactive).
Regarding `O=C(C/C(CCC(=O)N(Cc1ccccc1)Cc1ccccc1)=N/Nc1ccc([N+](=O)[O-])cc1[N+](=O)[O-])c1ccccc1`, the GI50 with COLO 205 is > 100 µM (inactive); with DMS-273 it was > 100 µM (inactive); with EKVX, > 100 µM (inactive); in the test on HCT-116, > 100 µM (inactive); in the test on HCT-15, 40.5 µM; in the test with HL-60, 41.2 µM (inactive). The GI50 in the test on HOP-62 is 70.8 µM (inactive); with HOP-92 it was > 100 µM (inactive); in the test on K562 it was 28.1 µM (inactive); with NCI-H226 it was > 100 µM (inactive); with NCI-H23, > 100 µM (inactive); in the test with SK-MEL-28, > 100 µM (inactive). In addition, the GI50 with SK-OV-3, in the test with SNB-75 and with UACC-257 was > 100 µM (inactive) throughout.
For the compound `CC(=O)OCC1OC(n2cnc3c(I)nc(I)nc32)C(OC(C)=O)C1OC(C)=O` (stereo not drawn), the GI50 in the test with DMS-273 is 6.84 µM (inactive); in the test on EKVX, 18.5 µM (inactive); in the test on HCT-116 it was 4.91 µM (inactive); with HCT-15, 4.58 µM; in the test on HL-60, 2.47 µM (inactive); in the test on HOP-62, 18.8 µM (inactive). Also, the GI50 in the test with HOP-92 is 3.18 µM (inactive); in the test with K562, 3.69 µM (inactive); in the test with NCI-H226, 19.4 µM (inactive); with NCI-H23, 4.66 µM (inactive); with SK-MEL-28, 14.9 µM (inactive); in the test on SK-MEL-5, 13.3 µM (inactive). The GI50 with SNB-75 was 15.1 µM (inactive); with UACC-257 it was 14.1 µM (inactive).
Consider `Cc1c2ccncc2c(C)c2c1[nH]c1ccc(O)c(OCC(F)(F)F)c12`, for which the GI50 with COLO 205 is 11.9 µM (inactive); in the test with DMS-273, 1.79 µM (inactive); with EKVX, 10.3 µM (inactive); in the test with HCT-116 it was 2.39 µM (inactive); in the test on HL-60, 2.9 µM (inactive); with HOP-62, 10.8 µM (inactive). Also, the GI50 with HOP-92 was 5.47 µM (inactive); in the test on K562, 3.16 µM (inactive); with NCI-H226, 8.13 µM (inactive); in the test on NCI-H23, 6.1 µM (inactive); in the test on SK-MEL-28, 10.8 µM (inactive); with SK-MEL-5 it was 5.56 µM (inactive). Also, the GI50 with SK-OV-3 is 10.2 µM (inactive); in the test with SNB-75, 9.93 µM (inactive); in the test on UACC-257 it was 10.6 µM (inactive).
Regarding `Cn1c(=O)nc2n(-c3ccc(O)cc3)c3ccccc3nc-2c1=O`, the GI50 with COLO 205 was 23.9 µM (inactive); with DMS-273 it was 11.5 µM (inactive); with EKVX, > 100 µM (inactive); with HCT-116, > 100 µM (inactive); in the test on HCT-15 it was greater than 100 µM; in the test on HL-60, > 100 µM (inactive). For the same compound, the GI50 with HOP-62 was 55.8 µM (inactive); in the test with HOP-92, 26.4 µM (inactive); in the test with K562, > 100 µM (inactive); in the test with NCI-H226, 92.3 µM (inactive); in the test with NCI-H23, 23.3 µM (inactive); in the test on SK-MEL-28 it was > 100 µM (inactive). The GI50 in the test with SK-MEL-5 was 18.7 µM (inactive); with SK-OV-3, > 100 µM (inactive); in the test with SNB-75, 9.23 µM (inactive); in the test with UACC-257, > 100 µM (inactive).
In the case of `O=C(C#Cc1cnc(O)nc1O)c1ccccc1Cl`, the GI50 in the test on COLO 205 was 15.7 µM (inactive); with DMS-273, 19.1 µM (inactive); with EKVX, 20 µM (inactive); with HCT-116, 14.4 µM (inactive); in the test on HCT-15, 15 µM; in the test with HL-60, 13.3 µM (inactive). Besides, the GI50 in the test with HOP-62 was > 100 µM (inactive); with HOP-92, 19.7 µM (inactive); in the test with K562, 4.83 µM (inactive); with NCI-H226 it was 28.8 µM (inactive); in the test with NCI-H23, 17.1 µM (inactive); in the test with SK-MEL-28, 17.9 µM (inactive). Besides, the GI50 in the test on SK-MEL-5 is 15 µM (inactive); in the test with SK-OV-3, 51.3 µM (inactive); with SNB-75 it was 19.9 µM (inactive); in the test on UACC-257 it was 14.7 µM (inactive).
